Laboratory results published in publication PMC11489133, “Obicetrapib exhibits favorable physiochemical and pharmacokinetic properties compared to previous cholesteryl ester transfer protein inhibitors: An integrated summary of results from non‐human primate studies and clinical trials” (Pharmacology Research & Perspectives, 2024).
Where two headings read alike, the source gives them in different places.

Experiment: 39-week oral (gavage) toxicity/toxicokinetic study with 13-week treatment-free recovery period in cynomolgus monkeys
Format: in vivo, cynomolgus monkeys (Macaca fascicularis)
Settings: for AUC(0–24) / Cmax / AUC(0-t): mean; for Rac AUC(0–24 h) (accumulation ratio) / Rac C max (accumulation ratio): Week 39 / Day 1; for concentration at 13 weeks after last dose / half-life / t max / Cmax / AUC(0-t): cynomolgus monkey; for concentration at 13 weeks after last dose: oral, after 13‐week treatment‐free period, all four recovery monkeys; for half-life / t max / Cmax / AUC(0-t): plasma, po; for AUC(0-t): read-out: AUC(0–24) (converted)
Protocol: CETP is present and active in non‐human primates, rabbits, and hamsters, but is absent in most other animal species, including mice, rats, and dogs.[2], [31], [32] A non‐human primate study was conducted using cynomolgus monkeys (Macaca fascicularis) to evaluate the toxicity of obicetrapib (TA‐8995), following twice daily (b.i.d.), six h apart, oral (gavage) administration to the monkey for 39 weeks (Clinical Study Report [CSR], NewAmsterdam Pharma). The monkey was selected as the species for this study because the CETP structure in monkeys is very similar to the structure of human CETP.[33] The cynomolgus monkeys were obtained from Noveprim Ltd, Mauritius. The monkeys were approximately 26–30 months old when obtained for the study and 28–32 months old at the start of dosing. On arrival at the study site, the weight range of the monkeys was 2.4–3.3 kg. Individual body weights were recorded once weekly (including Day 1 before the start of dosing) from time of allocation and on the day of necropsy. At the start of dosing, the weight range of the monkeys was 2.4–3.3 kg and 2.5–3.9 kg for the females and males, respectively. The weight range of the monkeys at the end of the dosing period (Week 39) was 3.0–4.8 kg and 3.0–5.2 kg for females and males, respectively.
The weight range of the recovery monkeys (n = 8) at Week 14 of the recovery period, prior to necropsy, was 3.5–5.2 kg and 3.7–4.9 kg for the females and males, respectively.
The animals were housed in pens that conform to the “Code of practice for the housing and care of animals used in scientific procedures” in rooms exclusive to the study. The rooms were air‐conditioned to provide 15–20 air changes/hour, and the temperature and relative humidity ranges were maintained at 21–25°C and 40–70%, respectively. Fluorescent lighting was controlled automatically to give a cycle of 12 h light and 12 h dark, with the exception of when experimental procedures dictated otherwise. A number of strategies were used for environmental enrichment for the monkeys, such as the provision of toys (e.g., balls, inert nylon chews), swings, and foraging materials. The monkeys were offered ad libitum water, 100 g of SQC Mazuri Primate Diet (Special Diets Services Ltd., Witham, UK), and a 25 g Bonio biscuit (Spillers) each day. When available, the diet was supplemented twice daily with fresh fruit, fresh vegetables, forage mix, peanuts, raisins, or sunflower seeds. The study was conducted in accordance with the requirements of the Animals (Scientific Procedures) Act 1986 and a local ethical review was maintained (CSR, NewAmsterdam Pharma).
The monkeys (n = 40; 20 of each sex) were allocated into four groups (based on existing social groupings) to receive treatment for 39 weeks: a control group (no treatment), a low‐dose group (10 mg/kg/day [5 mg/kg/b.i.d.] of obicetrapib), an intermediate‐dose group (20 mg/kg/day [10 mg/kg/b.i.d.] of obicetrapib), and a high‐dose group (50 mg/kg/day [25 mg/kg/b.i.d.] of obicetrapib). Four monkeys (two of each sex) from the 50 mg/kg/day dose group and four (two of each sex) from the control group were followed for an extended treatment‐free period of 13 weeks (recovery period). Obicetrapib was dosed as a suspension in 0.5% sodium carboxylmethyl cellulose solution and 0.1% polyoxyethylene hydrogenated castor oil. Toxicokinetic parameters were examined after 39 weeks of dosing. Blood samples for toxicokinetic evaluation were taken from all monkeys in the study on Day 1 and Day 273 (Week 39) pre‐dose and at 0.5, 1, 2, 3, 4, 6, 7.5, 9, 10, 12, and 24 h after dosing. Blood samples for toxicokinetic assessments were taken from the recovery animals on multiple days during the treatment‐free period at the same time intervals as the 24‐hour samples in Week 39. Delayed onset toxicity and/or reversibility of toxicity were examined during the 13‐week treatment‐free period. […]

[1] = female, 10 mg/kg/day, Day 1, 10 mg/kg/d, females
[2] = female, 20 mg/kg/day, Day 1, 20 mg/kg/d, females
[3] = female, 50 mg/kg/day, Day 1, 50 mg/kg/d, females
[4] = male, 10 mg/kg/day, Day 1, 10 mg/kg/d, males
[5] = male, 20 mg/kg/day, Day 1, 20 mg/kg/d, males
[6] = male, 50 mg/kg/day, Day 1, 50 mg/kg/d, males

With `CCOC(=O)N1c2ccc(C(F)(F)F)cc2C(N(Cc2cc(C(F)(F)F)cc(C(F)(F)F)c2)c2ncc(OCCCC(=O)O)cn2)CC1CC` (stereo not shown) [Obicetrapib] the “AUC(0–24)” value (Day 273 (Week 39), 10 mg/kg/d, females) was 41 300 ngh/mL, the “AUC(0–24)” value (Day 273 (Week 39), 10 mg/kg/d, males) was 40 300 ngh/mL and the “AUC(0–24)” value (Day 273 (Week 39), 20 mg/kg/d, females) was 54 000 ngh/mL. The “AUC(0–24)” value (Day 273 (Week 39), 20 mg/kg/d, males) was 65 200 ngh/mL, the “AUC(0–24)” value (Day 273 (Week 39), 50 mg/kg/d, females) was 103 000 ngh/mL and the “AUC(0–24)” value (Day 273 (Week 39), 50 mg/kg/d, males) was 111 000 ngh/mL. The “Rac AUC(0–24 h) (accumulation ratio)” value (10 mg/kg/d, females, mean (SD)) was 1.4 (0.2), the “Rac C max (accumulation ratio)” value (10 mg/kg/d, females, mean (SD)) was 1.0 (0.2) and the “Rac AUC(0–24 h) (accumulation ratio)” value (10 mg/kg/d, males, mean (SD)) was 1.4 (0.3). For the same molecule, the “Rac C max (accumulation ratio)” value (10 mg/kg/d, males, mean (SD)) was 1.4 (0.1), the “Rac AUC(0–24 h) (accumulation ratio)” value (20 mg/kg/d, females, mean (SD)) was 1.1 (0.2) and the “Rac C max (accumulation ratio)” value (20 mg/kg/d, females, mean (SD)) was 1.1 (0.2). For the same molecule, the “Rac AUC(0–24 h) (accumulation ratio)” value (20 mg/kg/d, males, mean (SD)) was 1.4 (0.2), the “Rac C max (accumulation ratio)” value (20 mg/kg/d, males, mean (SD)) was 1.4 (0.3) and the “Rac AUC(0–24 h) (accumulation ratio)” value (50 mg/kg/d, females, mean (SD)) was 0.9 (0.2). The “Rac C max (accumulation ratio)” value (50 mg/kg/d, females, mean (SD)) was 0.8 (0.1), the “Rac AUC(0–24 h) (accumulation ratio)” value (50 mg/kg/d, males, mean (SD)) was 1.0 (0.1) and the “Rac C max (accumulation ratio)” value (50 mg/kg/d, males, mean (SD)) was 1.0 (0.2). It also gave a concentration at 13 weeks after last dose (both sexes, fat homogenate, 50 mg/kg/day, read-out: obicetrapib in fat homogenate (below LLOQ)) of under 0.5 ng/mL, a concentration at 13 weeks after last dose (both sexes, 50 mg/kg/day, perirenal white fat, read-out: obicetrapib in adipose tissue (below LLOQ), per g of fat) of under 10 ng/g and a half-life (both sexes, Day 1, read-out: Apparent t 1/2 for the individual monkeys) of 4.8 to 10.5 h. It also gave a half-life (both sexes, Day 1, read-out: mean t 1/2, range over groups) of 5.8 to 7.2 h, a half-life (both sexes, Day 273, read-out: mean t 1/2, range over groups) of 6.4 to 12.1 h and a half-life (both sexes, Week 39, with one exception, read-out: Apparent t 1/2 for the individual monkeys) of 5.3 to 18.3 h. The “elimination of obicetrapib from plasma” value (end of 13‐week treatment‐free period, 50 mg/kg/day, both males and one female) was “complete”, the “obicetrapib detected in plasma, % of the observed maximum concentration” value (end of 13‐week treatment‐free period, 50 mg/kg/day, one recovery female) was 0.25% and the “time within which the mean C max was achieved” value (end of treatment, all of the monkeys, 3 h after the second dose) was at most 9 h. For the same molecule, the t max (female, 10 mg/kg/day, Day 1, 10 mg/kg/d, females, mean (SD)) was 5.9 h, the half-life (female, 10 mg/kg/day, Day 1, 10 mg/kg/d, females, mean (SD), read-out: t ½ (elimination half‐life) (converted)) was 7.2 h and the Cmax (female, 10 mg/kg/day, Day 273 (Week 39), 10 mg/kg/d, females) was 3390 ng/mL. It also gave a t max (female, 10 mg/kg/day, Day 273 (Week 39), 10 mg/kg/d, females, mean (SD)) of 4.8 h, a half-life (female, 10 mg/kg/day, Day 273 (Week 39), 10 mg/kg/d, females, mean (SD), read-out: t ½ (elimination half‐life) (converted)) of 12.1 h and a Cmax [1] of 3300 ng/mL. It also gave an AUC(0-t) [1] of 29800 ng·h/mL, a t max (female, 20 mg/kg/day, Day 1, 20 mg/kg/d, females, mean (SD)) of 4.8 h and a half-life (female, 20 mg/kg/day, Day 1, 20 mg/kg/d, females, mean (SD), read-out: t ½ (elimination half‐life) (converted)) of 5.8 h. For the same molecule, the Cmax (female, 20 mg/kg/day, Day 273 (Week 39), 20 mg/kg/d, females) was 5160 ng/mL, the t max (female, 20 mg/kg/day, Day 273 (Week 39), 20 mg/kg/d, females, mean (SD)) was 4.8 h and the half-life (female, 20 mg/kg/day, Day 273 (Week 39), 20 mg/kg/d, females, mean (SD), read-out: t ½ (elimination half‐life) (converted)) was 8.8 h. For the same molecule, the Cmax [2] was 4980 ng/mL, the AUC(0-t) [2] was 47800 ng·h/mL and the half-life (female, 50 mg/kg/day, 50 mg/kg/day group, female with detectable concentrations 13 weeks after the last dose, read-out: t ½ of one outlier female (converted)) was 516 h. For the same molecule, the t max (female, 50 mg/kg/day, Day 1, 50 mg/kg/d, females, mean (SD)) was 6.2 h, the half-life (female, 50 mg/kg/day, Day 1, 50 mg/kg/d, females, mean (SD), read-out: t ½ (elimination half‐life) (converted)) was 6.8 h and the Cmax (female, 50 mg/kg/day, Day 273 (Week 39), 50 mg/kg/d, females) was 8480 ng/mL. For the same molecule, the t max (female, 50 mg/kg/day, Day 273 (Week 39), 50 mg/kg/d, females, mean (SD)) was 6.6 h, the half-life (female, 50 mg/kg/day, Day 273 (Week 39), 50 mg/kg/d, females, mean (SD), does not include data from one outlier, read-out: t ½ (elimination half‐life) (converted)) was 7.4 h and the half-life (female, 50 mg/kg/day, females in the high dose group (50 mg/kg/day), Week 39, read-out: mean t 1/2 including the outlier (converted)) was 109 h. The Cmax [3] was 11600 ng/mL, the AUC(0-t) [3] was 118000 ng·h/mL and the t max (male, 10 mg/kg/day, Day 1, 10 mg/kg/d, males, mean (SD)) was 5 h. The half-life (male, 10 mg/kg/day, Day 1, 10 mg/kg/d, males, mean (SD), read-out: t ½ (elimination half‐life) (converted)) was 6.8 h, the Cmax (male, 10 mg/kg/day, Day 273 (Week 39), 10 mg/kg/d, males) was 3800 ng/mL and the t max (male, 10 mg/kg/day, Day 273 (Week 39), 10 mg/kg/d, males, mean (SD)) was 2 h. It also gave a half-life (male, 10 mg/kg/day, Day 273 (Week 39), 10 mg/kg/d, males, mean (SD), read-out: t ½ (elimination half‐life) (converted)) of 11 h, a Cmax [4] of 2800 ng/mL and an AUC(0-t) [4] of 29300 ng·h/mL. For the same molecule, the t max (male, 20 mg/kg/day, Day 1, 20 mg/kg/d, males, mean (SD)) was 2.5 h, the half-life (male, 20 mg/kg/day, Day 1, 20 mg/kg/d, males, mean (SD), read-out: t ½ (elimination half‐life) (converted)) was 6.9 h and the Cmax (male, 20 mg/kg/day, Day 273 (Week 39), 20 mg/kg/d, males) was 6410 ng/mL. The t max (male, 20 mg/kg/day, Day 273 (Week 39), 20 mg/kg/d, males, mean (SD)) was 2.3 h, the half-life (male, 20 mg/kg/day, Day 273 (Week 39), 20 mg/kg/d, males, mean (SD), read-out: t ½ (elimination half‐life) (converted)) was 8.1 h and the Cmax [5] was 4740 ng/mL. The AUC(0-t) [5] was 46600 ng·h/mL, the t max (male, 50 mg/kg/day, Day 1, 50 mg/kg/d, males, mean (SD)) was 7.6 h and the half-life (male, 50 mg/kg/day, Day 1, 50 mg/kg/d, males, mean (SD), read-out: t ½ (elimination half‐life) (converted)) was 6.8 h. It also gave a Cmax (male, 50 mg/kg/day, Day 273 (Week 39), 50 mg/kg/d, males) of 9210 ng/mL, a t max (male, 50 mg/kg/day, Day 273 (Week 39), 50 mg/kg/d, males, mean (SD)) of 8.5 h and a half-life (male, 50 mg/kg/day, Day 273 (Week 39), 50 mg/kg/d, males, mean (SD), read-out: t ½ (elimination half‐life) (converted)) of 6.4 h. For the same molecule, the Cmax [6] was 9600 ng/mL, the AUC(0-t) [6] was 118000 ng·h/mL and the mean body weights (recovery period, monkeys treated at 50 mg/kg/day (25 mg/kg/b.i.d.)) was “comparable with the control monkeys”. The “Group mean body weights” value (treated monkeys, dosing period) was “comparable with the control monkeys”.
